Source: patent US9809562B2, “NAT10 modulators for treating or preventing laminopathies, aging and cancer” (CAMBRIDGE ENTERPRISE LIMITED, priority 2014, dated 2017)
Where a name gives a salt, the structure may show the parent alone.

Tests used:
normal human fibroblasts = experiment: Nuclear shape of normal fibroblasts, with or without FTI; type: cell-based
Text: FIG. 11: Remodelin prevents FTI induced nuclear shape defects in non-progeric cells. A) Analysis of Lamin A/C processing after Remodelin or FTI treatment, showing that Remodelin is not a FTI. B) Representative pictures of Lamin A/C IF staining after the indicated treatments. Arrows indicate FTI induced misshapen nuclei in normal fibroblasts. Scale bar: 50 μm. C) Quantification of misshapen nuclei with the indicated cell lines and inhibitor treatments (means of three independent experiments±s.e.m. n>178). D) Representative pictures of DAPI staining showing effects of FTI and Remodelin on nuclear shape of U2OS cells. Scale bars: 20 μm.
(§1) U2OS and SaOS-2 osteosarcoma cells, HeLa cervical cancer cells, A431 melanoma cells, NCI-SNU5 gastric cancer cells, MRC-5 lung fibroblast cells and Werner syndrome patient-derived SV40 fibroblast cells were grown in Dulbecco's modified Eagle medium (DMEM, Sigma-Aldrich) supplemented with 10% fetal bovine serum (BioSera), 2 mM L-glutamine, 100 U per ml penicillin, 100 μg ml^−1 streptomycin. […] Cells were analysed 48 to 72 hours after transfection.
The following KAT and KDAC inhibitors were used in the nuclear shape rescue screen, incubating cells with the molecules for 16 hours: trichostatin A (1 μM), sodium butyrate (5 mM), tubacin (10 μM), SAHA (5 μM), curcumin (10 μM), garcinol (50 μM), anacardic acid (1 μM), MB-3 (5 μM), 4-(4-chlorophenyl)-2-(2-cyclopentylidenehydrazinyl)thiazole (Compound 2) (50 μM), 4-(4-chlorophenyl)-2-(2-cyclopentylidene-1-(prop-2-yn-1-yl)hydrazinyl)thiazole (Compound 3) (50 μM) and cyclopentylidene-[4-(4-cyanophenyl)thiazol-2-yl)hydrazine (Compound 1) (Remodelin) (10 to 50 μM). […] Senescence was assessed after 8 days of Remodelin treatment when cells were at Population Doubling 12, and then after several weeks of Remodelin treatment, when cells reached Population Doubling 24 using the Senescence β-Galactosidase Staining Kit #9860 from Cell Signaling. […]

[1] = test system: cancer cell lines displaying reduced Lamin A/C expression; experiment: Nuclear morphology of cancer cell lines with reduced Lamin A/C expression (DAPI); type: cell-based, human
Text: FIG. 2: Small molecule Compound 2 rescues nuclear shape defects in various Lamin A/C depleted cells. A) and B) Nuclear shape visualization by DAPI staining of HeLa (A) or RPE-1 (B) cells depleted for Lamin A/C (siLMNA) and treated with various KATi. Scale bars: 50 μm. C) and D) Cell Profiler quantification of nuclear circularity of HeLa (C) or RPE-1 (D) cells from DAPI staining as shown in A) and B) (means of three independent experiments with n>252±s.d). E) Cell cycle profile analysed by flow cytometry. PI: propidium iodide. F) Analysis of Lamin A/C expression levels in indicated cancer cell lines. Bottom panel: Image J quantification of Lamin A/C expression in cancer cells relative to normal RPE-1 cells. G) Representative pictures of DAPI staining showing nuclear shape improvement in low Lamin A/C expressing cancer cells after treatment with Compound 2. Scale bars: 20 μm.
as §1

SMILES | nuclear shape of normal cells (normal human fibroblasts; cells that do not express Progerin) | FTI-induced nuclear shape defects (normal human fibroblasts; normal fibroblasts co-treated with FTI) | nuclear morphology of cancer cell lines [1]
N#Cc1ccc(-c2csc(NN=C3CCCC3)n2)cc1 [Compound 1, 4-(4-Cyanophenyl)-2-(2-cyclopentylidenehydrazinyl)thiazole] | did not induce nuclear shape defects in normal human fibroblasts | prevented FTI-induced nuclear shape defects | –
Clc1ccc(-c2csc(NN=C3CCCC3)n2)cc1 [Compound 2, 4-(4-Chlorophenyl)-2-(2-cyclopentylidenehydrazinyl)thiazole Hydrochloride Salt] | – | – | improved the nuclear morphology of several cancer cell lines
